# Results as given in publication PMC8301768, “Cloning and Characterization of Aedes aegypti Trypsin Modulating Oostatic Factor (TMOF) Gut Receptor” (Biomolecules, 2021).
# Key:
# AeaABC-TMOF receptor [1] = assay: Transport of AeaTMOF-FITC into E. coli cells expressing AeaABC-TMOF receptor in the presence of inhibitors; format: cell-based, Aedes aegypti; details: NaAzide 100 μM, NaArsenate 20 mM, AeaTMOF-FITC 0.4 μM, 2 h, 37 °C; for inhibition of transport of AeaTMOF-FITC into E. coli cells: 5 × 10^5 cells, M9 medium, versus control cells, mean of 3; for effect on transport of AeaTMOF-FITC into E. coli cells (in words): Valinomycin 7 μM, DNP 27 μM
# Description: To find out whether the transport into E. coli cells expressing the TMOF receptor is proton driven or depends on ATP hydrolysis, E. coli cells (5 × 10^5 cell) expressing the TMOF receptor were incubated in M9 medium (100 μL) with valinomysin (7 μM), DNP (27 μM), NaAzide (100 μM) and NaArsenate (20 mM) in the presence of AeaTMOF-FITC (0.4 μM) for 2 h at 37 °C. Control was run without the inhibitors. After incubation, the cells were washed 3× by centrifugation and the fluorescence was read after subtraction the initial background fluorescence of the medium and inhibitors without the AeaTMOF-FITC. The incubations were repeated 3 independent times and the results are expressed as means of 3 determinations ±SEM.
# E. coli SbmA+ cells = assay: Binding of TMOF-FITC to E. coli SbmA+ cells with empty pTAC-MAT2 plasmid; details: 8 × 10^8 cells, 2 h, 37 °C, M9 medium, mean of three
# Description: (§1) Mid-log phase bacteria harboring TMOF-receptor were harvested, diluted and 0.5 μL (8 × 10^8 cells) were incubated in M9 medium (100 μL) pH 7.2 at 37 °C for 2 h in a shaker incubator in Eppendorf tubes with different concentrations of TMOF-FITC (0–0.4 μM) (specific activity = 25,396 fluorescence units/pmol) in the presence of TMOF (1 μmol) to reduce nonspecific binding of TMOF-FITC to the bacterial surface. After incubation, the cells were centrifuged at 14,000 rpm for 5 min at 4 °C, resuspended in PBS pH 7.2 (100 μL), vortexed, centrifuged, and the washing was repeated three times. After the last wash, the cells OD600nm and fluorescence were read in GloMax multidetector system using a blue filter (excitation at 490 nm and emission at 510–570 nm). The amount of TMOF-FITC that bound the TMOF-receptor was determined from a linear calibration curve after plotting different concentrations of TMOF-FITC against fluorescence units. […] The results are expressed as pmol/OD600 so the binding to the receptor is per equal number of E. coli cells. The kinetics of TMOF-FITC binding to its receptor was followed at different concentrations of TMOF-FITC using 5 repetitions per concentration, the data was then fitted by nonlinear regression using GraphPad Prism and the KD, Bmax and the affinity constant Kassoc determined. […]
# AeaABC-TMOF receptor [2] = assay: Fluorescence microscopy of TMOF-FITC import into E. coli cells expressing AeaABC-TMOF receptor; format: cell-based, Aedes aegypti; details: for fluorescence of cells / import (in words): overnight incubation, 10^8 cells expressing receptor, 37 °C, washed 3×
# Description: Binding of TMOF-FITC to the AeaABC-TMOF receptor and its transport into the recombinant E. coli cells were observed using Leica DM6B microscope with Leica DFC 7000 T camera and 63× magnification using oil immersion lens. […] After incubation, the cells were washed 3× in PBS pH 7.2 (as in Section 2.6) and aliquots (10 μL) were spread on a glass slide then covered with a cover slip and a drop of oil was applied to the top of the cover slip, and the cells observed by fluorescence microscopy. Cells without a TMOF-receptor containing an empty plasmid were used as control.
# E. coli SbmA− cells [3] = assay: Nonspecific binding of TMOF-FITC to E. coli SbmA− cells with empty pTAC-MAT-2 plasmid
# Description: as §1
# AeaABC-TMOF receptor [4] = assay: Binding of TMOF-FITC to AeaABC-TMOF receptor expressed in E. coli SbmA− cells; design: species or system Aedes aegypti; details: for Kd: TMOF-FITC 0–0.4 μM, 8 × 10^8 E. coli SbmA− cells expressing receptor, M9 medium pH 7.2, 37 °C, fluorescence, corrected for nonspecific binding (13%), nonlinear regression, n = 5, ± SEM; for Bmax: as for KD, ± SEM; for affinity constant Kassoc: calculated from the binding kinetics
# Description: Mid-log phase bacteria harboring TMOF-receptor were harvested, diluted and 0.5 μL (8 × 10^8 cells) were incubated in M9 medium (100 μL) pH 7.2 at 37 °C for 2 h in a shaker incubator in Eppendorf tubes with different concentrations of TMOF-FITC (0–0.4 μM) (specific activity = 25,396 fluorescence units/pmol) in the presence of TMOF (1 μmol) to reduce nonspecific binding of TMOF-FITC to the bacterial surface. After incubation, the cells were centrifuged at 14,000 rpm for 5 min at 4 °C, resuspended in PBS pH 7.2 (100 μL), vortexed, centrifuged, and the washing was repeated three times. After the last wash, the cells OD600nm and fluorescence were read in GloMax multidetector system using a blue filter (excitation at 490 nm and emission at 510–570 nm). The amount of TMOF-FITC that bound the TMOF-receptor was determined from a linear calibration curve after plotting different concentrations of TMOF-FITC against fluorescence units. […] After HPLC purification, the TFA ions were exchanged with phosphate ions. […] The results are expressed as pmol/OD600 so the binding to the receptor is per equal number of E. coli cells. The kinetics of TMOF-FITC binding to its receptor was followed at different concentrations of TMOF-FITC using 5 repetitions per concentration, the data was then fitted by nonlinear regression using GraphPad Prism and the KD, Bmax and the affinity constant Kassoc determined. The binding experiments were repeated 3 independent times.
# Statistical analyses were determined using GraphPad Prism using two tailed Student’s t test and nonlinear regression. Results were considered significant when p < 0.05. […] Each experimental point is a mean of 3–5 determinations ± SEM.
# E. coli SbmA− cells [5] = assay: Fluorescence microscopy of E. coli cells with empty pTAC-MAT-2 plasmid incubated with TMOF-FITC; format: cell-based; details: overnight incubation, 10^8 cells with empty plasmid, 37 °C, washed 3×
# Description: Binding of TMOF-FITC to the AeaABC-TMOF receptor and its transport into the recombinant E. coli cells were observed using Leica DM6B microscope with Leica DFC 7000 T camera and 63× magnification using oil immersion lens. Mid-log E. coli cells (10^8 cells) expressing AeaABC-TMOF-receptor were incubated with TMOF-FITC (see Section 2.6) in M9 medium (100 μL) overnight at 37 °C. After incubation, the cells were washed 3× in PBS pH 7.2 (as in Section 2.6) and aliquots (10 μL) were spread on a glass slide then covered with a cover slip and a drop of oil was applied to the top of the cover slip, and the cells observed by fluorescence microscopy. Cells without a TMOF-receptor containing an empty plasmid were used as control.
# TMOF gut receptor = details: cited from earlier work
# Description: To characterize the TMOF gut receptor, complementary decapeptides were used on Ae. aegypti gut membranes showing that the binding to the gut membrane is pH and temperature dependent. […] The specific TMOF receptor binding sites on female mosquito gut increased after the blood meal and they were visualized by immunochemistry staining. […] Our earlier studies also characterized a low affinity receptor [25] whereas in this study the affinity chromatography and SDS PAGE procedure that we used aimed to purify a high affinity TMOF receptor. It is possible that a second low affi ...
compound,measurement,setting,value
"[N-]=[N+]=[N-].[Na+] [NaAzide, sodium azide]",inhibition of transport of AeaTMOF-FITC into E. coli cells,AeaABC-TMOF receptor [1],43%
same,effect on transport of AeaTMOF-FITC into E. coli cells (in words),AeaABC-TMOF receptor [1],inhibited
H-YDPAPPPPPPK(FITC)K-OH [TMOF-FITC],AeaTMOF-FITC bound,E. coli SbmA+ cells,8.4 pmol
same,fluorescence of cells / import (in words),AeaABC-TMOF receptor [2],imports it into the bacterial cells
same,fluorescence of cells / import (in words),AeaABC-TMOF receptor [2]; listed as AeaTMOF-FITC,highly fluoresce
same,fluorescence of cells (in words),"AeaABC-TMOF receptor [2]; short time incubation (2 h), cells expressing receptor",did not fluoresce
same,nonspecific binding,"E. coli SbmA− cells [3]; E. coli SbmA− cells with empty pTAC-MAT-2 plasmid, not expressing the receptor (bacterial cell wall)",13%
same,AeaTMOF-FITC bound,"E. coli SbmA− cells [3]; E. coli SbmA− cells, 8 × 10^8 cells, 2 h, 37 °C, M9 medium, mean of three",4 pmol
same,fold more TMOF-FITC bound by receptor-expressing cells than by E. coli SbmA+,"AeaABC-TMOF receptor [4]; 2 h, 37 °C, M9 medium, versus E. coli SbmA+ with empty plasmid, p = 0.0034",3.7 fold
same,fold more TMOF-FITC bound by receptor-expressing cells than by E. coli SbmA−,"AeaABC-TMOF receptor [4]; 2 h, 37 °C, M9 medium, versus E. coli SbmA− with empty plasmid, p = 0.0018",7.8 fold
same,Kd,AeaABC-TMOF receptor [4]; 2 h,114 ± 18 nM
same,Bmax,"AeaABC-TMOF receptor [4]; per equal number of E. coli cells, n = 5",28.7 ± 1.8 pmol/OD600
same,affinity constant Kassoc,AeaABC-TMOF receptor [4],8.8e+06 M⁻¹
same,fluorescence of cells (in words),E. coli SbmA− cells [5],did not fluoresce
same,fluorescence of cells (in words),E. coli SbmA− cells [5]; listed as AeaTMOF-FITC,barely fluoresce
"O=[As]([O-])([O-])O.[Na+].[Na+] [NaArsenate, sodium arsenate]",inhibition of transport of AeaTMOF-FITC into E. coli cells,AeaABC-TMOF receptor [1],58%
same,effect on transport of AeaTMOF-FITC into E. coli cells (in words),AeaABC-TMOF receptor [1],inhibited
CC(C)[C@@H]1NC(=O)[C@H](C)OC(=O)[C@@H](C(C)C)NC(=O)[C@@H](C(C)C)OC(=O)[C@H](C(C)C)NC(=O)[C@H](C)OC(=O)[C@@H](C(C)C)NC(=O)[C@@H](C(C)C)OC(=O)[C@H](C(C)C)NC(=O)[C@H](C)OC(=O)[C@@H](C(C)C)NC(=O)[C@@H](C(C)C)OC1=O [Valinomycin],effect on transport of AeaTMOF-FITC into E. coli cells (in words),AeaABC-TMOF receptor [1],did not stop the transport
"O=[N+]([O-])c1ccc(O)c([N+](=O)[O-])c1 [DNP, 2,4-dinirophenol]",effect on transport of AeaTMOF-FITC into E. coli cells (in words),AeaABC-TMOF receptor [1],did not stop the transport
YDPAPPPPPP [TMOF],Bmax,TMOF gut receptor; gut membrane preparations,0.1 pmol/gut
same,Kassoc,TMOF gut receptor; gut membrane preparations,2.2e+06 M⁻¹
same,Kd,"TMOF gut receptor; low affinity binding site, gut membranes, complementary decapeptides, read-out: Kd2",4430 nM
same,Kd,AeaABC-TMOF receptor [4]; 2 h,114 ± 18 nM
same,Bmax,AeaABC-TMOF receptor [4],28.7 ± 1.8 pmol
same,affinity constant Kassoc,AeaABC-TMOF receptor [4],8.8e+06 M⁻¹
